Data published in BindingDB's records for doi:10.1021/jm000506s (The R. W. Johnson Pharmaceutical Research Institute, 2001).

Assay: In vitro antagonist activity against Thrombin induced gel-filtered platelet (GFP) aggregation at 0.15 nM.

IC50 [µM]	SMILES
0.37	NCC[C@H](NC(=O)[C@H](Cc1ccc(F)c(F)c1)NC(=O)Nc1ccc2c(CN3CCCC3)nn(Cc3c(Cl)cccc3Cl)c2c1)C(=O)NCc1ccccc1 [4-Amino-N-benzyl-2-[2-{3-[1-(2,6-dichloro-benzyl)-3-pyrrolidin-1-ylmethyl-1H-indazol-6-yl]-ureido}-3-(3,4-difluoro-phenyl)-propionylamino]-butyramide]
2.32	COc1ccc(C[C@H](NC(=O)Nc2ccc3c(CN4CCCC4)cn(Cc4ccc(F)cc4)c3c2)C(=O)N[C@@H](CCCNC(=N)N)C(=O)NCc2ccccc2)cc1 [2-[2-{3-[1-(4-Fluoro-benzyl)-3-pyrrolidin-1-ylmethyl-1H-indol-6-yl]-ureido}-3-(4-methoxy-phenyl)-propionylamino]-5-guanidino-pentanoic acid benzylamide]
18.2	COc1ccc(C[C@H](NC(=O)Nc2ccc3c(CN4CCCC4)cn(Cc4ccc(OC(F)(F)F)cc4)c3c2)C(=O)N[C@@H](CCCNC(=N)N)C(=O)NCc2ccccc2)cc1 [5-Guanidino-2-(3-(4-methoxy-phenyl)-2-{3-[3-pyrrolidin-1-ylmethyl-1-(4-trifluoromethoxy-benzyl)-1H-indol-6-yl]-ureido}-propionylamino)-pentanoic acid benzylamide]
1.06	N=C(N)NCCC[C@H](NC(=O)[C@H](Cc1ccc(F)c(F)c1)NC(=O)Nc1ccc2c(CN3CCCC3)cn(Cc3c(Cl)cccc3Cl)c2c1)C(=O)NCc1ccncc1 [2-[2-{3-[1-(2,6-Dichloro-benzyl)-3-pyrrolidin-1-ylmethyl-1H-indol-6-yl]-ureido}-3-(3,4-difluoro-phenyl)-propionylamino]-5-guanidino-pentanoic acid (pyridin-4-ylmethyl)-amide]
0.57	N=C(N)NCCC[C@H](NC(=O)[C@H](Cc1ccc(F)c(F)c1)NC(=O)Nc1ccc2c(CN3CCCC3)cn(Cc3c(Cl)cccc3Cl)c2c1)C(=O)NCc1ccccc1 [(S)-2-[(S)-2-{3-[1-(2,6-Dichloro-benzyl)-3-pyrrolidin-1-ylmethyl-1H-indol-6-yl]-ureido}-3-(3,4-difluoro-phenyl)-propionylamino]-5-guanidino-pentanoic acid benzylamide]
17.8	COc1ccc(C[C@H](NC(=O)Nc2ccc3c(CNC4CCCC4)cn(Cc4ccc(F)cc4)c3c2)C(=O)N[C@@H](CCCNC(=N)N)C(=O)NCc2ccccc2)cc1 [2-[2-{3-[3-Cyclopentylaminomethyl-1-(4-fluoro-benzyl)-1H-indol-6-yl]-ureido}-3-(4-methoxy-phenyl)-propionylamino]-5-guanidino-pentanoic acid benzylamide]
0.9	COc1ccc(C[C@H](NC(=O)Nc2ccc3c(CN4CCCC4)cn(Cc4c(Cl)cccc4Cl)c3c2)C(=O)N[C@@H](CCCN=C(N)N)C(=O)NCc2ccccc2)cc1 [RWJ-54003]
